Source: patent US3988308A, “(Tyr^3, Tyr^14)-SRIF and intermediates” (American Home Products Corporation, priority 1974, dated 1976)
No end group written: not given here.

Experiments:
growth hormone (GH) = conditions: background; Brazeau et al., Science 179 (1973); U.S. Pat. No. 3,842,066; cited from earlier work
growth hormone = assay: in vivo activity: plasma growth hormone by radioimmunoassay in nembutal-treated rats; conditions: 500 μg in PEG 400/water (1 ml) injected; rats 200-240 g; nembutal 50 mg/kg i.p. at 1 h 40 min; killed 20 min later; 19 treated rats; control average 117.9 ± 13.6
Experimental: (§1) The growth hormone inhibiting activity of the compound of Example 3 was determined by radioimmunoassay in a rat pituitary cell culture system as described by Vale et al, Endocrinology 91, pp 562 (1972) and Grant et al, Biochemical and Biophysical Research Communications 51, pp 100-106 (1973). The compound of Example 3 was tested at 10 ng/ml, 100 ng/ml and 1000ng/ml and was active at these concentrations in inhibiting growth hormone release. The in vivo activity of the compound of Example 3 was determined by dissolving 500 μg of this compound in a mixture of polyethylene glycol (PEG 400) and water (1 ml) and the mixture was injected in rats weighing 200-240 g. Control rats were injected with 80% PEG 400. One hour and forty minutes later the rats were injected i.p. with nembutal at 50 mg/kg. Twenty minutes after the nembutal injection the rats were killed and their blood plasmas were assayed for growth hormone by radioimmunoassay.
The average of 19 treated rats was 80.1 ± 9.0 × 10^-^9 g GH/ml and the average of 11 control rats was 117.9 ± 13.6 × 10^^-9 g GH/ml.

[1] = tested on: growth hormone release in rat pituitary cell culture; assay: growth hormone inhibiting activity by radioimmunoassay in a rat pituitary cell culture system; type: cell-based; conditions: tested at 10 ng/ml, 100 ng/ml and 1000ng/ml
Experimental: as §1

| Compound | inhibition of secretion/release of growth hormone (somatotropin) (growth hormone (GH)) | blood plasma growth hormone, average of treated rats (growth hormone) | inhibiting growth hormone release [1] |
| --- | --- | --- | --- |
| C[C@H](N)C(=O)NCC(=O)N[C@H]1CSSC[C@@H](C(=O)O)NC(=O)[C@H](CO)NC(=O)[C@H]([C@@H](C)O)NC(=O)[C@H](Cc2ccccc2)NC(=O)[C@H]([C@@H](C)O)NC(=O)[C@H](CCCCN)NC(=O)[C@H](Cc2c[nH]c3ccccc23)NC(=O)[C@H](Cc2ccccc2)NC(=O)[C@H](Cc2ccccc2)NC(=O)[C@H](CC(N)=O)NC(=O)[C@H](CCCCN)NC1=O [Somatostatin] | inhibit the secretion of the hormone somatotropin |  |  |
| (Ala^3,Ala^14)-SRIF: somatostatin analog described in U.S. Pat. No. 3,842,066 (AGAKNFFWKTFTSA; Somatostatin-14; UniProt P61278 103-116, looked up, variant C3A C14A) | inhibiting the release of growth hormone |  |  |
| AGYKNFFWKTFTSY [Example 3, L-alanylglycyl-L-tyrosyl-L-lysyl-L-asparaginyl-L-phenylalanyl-L-phenylalanyl-L-tryptophyl-L-lysyl-L-threonyl-L-phenylalanyl-L-threonyl-L-seryl-L-tyrosine] |  | 80.1 ± 9.0 × 10^-9 g GH/ml | active |
| H-Ala-Gly-Cys-Lys-Asn-Phe-Phe-Trp-Lys-Thr-Phe-Thr-Ser-Cys-OH (H-AGCKNFFWKTFTSC-OH; ends and bridges not checked) [linear form of somatostatin, synthesized by solid phase methodology] | same biological activity as the somatostatin obtained from a natural source |  |  |
